Data reported in ChEMBL document CHEMBL5442175, “EUbOPEN Chemogenomics Library - PDSP Secondary Binding” (2024).

Key:
[1] = biological target: T1, Muscarinic acetylcholine receptor M5 (Homo sapiens, UniProt P08912); assay: (§1) PDSP Secondary Binding target: CHRM5 - Compounds are tested at 10 uM concentration, plate are incubated at room temperature in the dark for 90 minutes. Reaction are stopped by vacuum filtration onto 0.3% polyethyleneimine soaked filter mats using Filtermate harvester. Scintillation cocktail is then melted onto microwave-dried filters on a hot plate and the radio activity is counted in Microbia counter.
T1 sequence (P08912 whole entry): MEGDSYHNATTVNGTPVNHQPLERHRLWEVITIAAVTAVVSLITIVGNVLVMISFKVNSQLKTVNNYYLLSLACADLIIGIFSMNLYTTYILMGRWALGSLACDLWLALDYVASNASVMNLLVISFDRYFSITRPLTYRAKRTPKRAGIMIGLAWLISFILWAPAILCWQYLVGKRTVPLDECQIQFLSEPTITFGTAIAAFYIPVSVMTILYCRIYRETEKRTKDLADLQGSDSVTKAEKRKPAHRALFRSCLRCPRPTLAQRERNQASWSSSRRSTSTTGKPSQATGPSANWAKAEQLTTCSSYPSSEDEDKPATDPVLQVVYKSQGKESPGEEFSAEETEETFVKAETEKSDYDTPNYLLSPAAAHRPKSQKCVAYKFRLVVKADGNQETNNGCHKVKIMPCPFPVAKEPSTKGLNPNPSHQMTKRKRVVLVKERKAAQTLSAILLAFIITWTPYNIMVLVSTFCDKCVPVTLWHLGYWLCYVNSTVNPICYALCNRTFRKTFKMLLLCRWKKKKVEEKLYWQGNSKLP

[2] = biological target: T2, 5-hydroxytryptamine receptor 1A (Homo sapiens, UniProt P08908); assay: as §1, with “HTR1A” for “CHRM5”
T2 sequence (P08908 whole entry): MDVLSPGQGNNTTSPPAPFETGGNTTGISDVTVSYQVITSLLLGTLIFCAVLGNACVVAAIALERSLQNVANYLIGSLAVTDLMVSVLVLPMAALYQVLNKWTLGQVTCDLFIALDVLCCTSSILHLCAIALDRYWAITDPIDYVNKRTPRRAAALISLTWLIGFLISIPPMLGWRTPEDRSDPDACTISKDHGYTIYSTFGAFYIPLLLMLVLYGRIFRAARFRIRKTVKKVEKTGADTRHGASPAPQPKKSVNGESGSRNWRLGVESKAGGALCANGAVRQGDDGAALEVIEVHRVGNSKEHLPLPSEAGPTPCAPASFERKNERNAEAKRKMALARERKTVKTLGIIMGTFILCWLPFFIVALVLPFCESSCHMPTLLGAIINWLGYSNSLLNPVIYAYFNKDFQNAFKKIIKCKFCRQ

[3] = biological target: 5-hydroxytryptamine receptor 1B (Homo sapiens, UniProt P28222); assay: as §1, with “HTR1B” for “CHRM5”
Sequence of 5-hydroxytryptamine receptor 1B (P28222 whole entry): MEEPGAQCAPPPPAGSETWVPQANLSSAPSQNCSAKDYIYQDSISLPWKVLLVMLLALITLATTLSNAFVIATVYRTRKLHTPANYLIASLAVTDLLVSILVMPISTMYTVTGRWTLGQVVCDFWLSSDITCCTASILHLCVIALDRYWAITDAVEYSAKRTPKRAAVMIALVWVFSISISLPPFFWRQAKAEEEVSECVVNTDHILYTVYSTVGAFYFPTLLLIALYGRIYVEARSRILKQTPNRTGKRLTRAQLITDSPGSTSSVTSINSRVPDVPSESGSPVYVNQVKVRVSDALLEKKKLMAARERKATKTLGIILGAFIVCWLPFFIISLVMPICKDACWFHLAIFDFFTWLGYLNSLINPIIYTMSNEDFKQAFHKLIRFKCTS

[4] = biological target: 5-hydroxytryptamine receptor 1D (Homo sapiens, UniProt P28221); assay: as §1, with “HTR1D” for “CHRM5”
Sequence of 5-hydroxytryptamine receptor 1D (P28221 whole entry): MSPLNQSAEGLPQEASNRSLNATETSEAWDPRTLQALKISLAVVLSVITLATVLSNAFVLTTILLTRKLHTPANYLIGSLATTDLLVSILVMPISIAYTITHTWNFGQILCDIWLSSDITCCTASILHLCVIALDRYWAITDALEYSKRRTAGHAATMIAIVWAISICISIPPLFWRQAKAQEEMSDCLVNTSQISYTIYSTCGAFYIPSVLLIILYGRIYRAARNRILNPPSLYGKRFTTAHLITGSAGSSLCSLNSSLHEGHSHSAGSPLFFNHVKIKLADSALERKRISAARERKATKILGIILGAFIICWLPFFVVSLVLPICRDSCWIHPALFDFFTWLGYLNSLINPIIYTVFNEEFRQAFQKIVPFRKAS

[5] = biological target: 5-hydroxytryptamine receptor 5A (Homo sapiens, UniProt P47898); assay: as §1, with “HTR5A” for “CHRM5”
Sequence of 5-hydroxytryptamine receptor 5A (P47898 whole entry): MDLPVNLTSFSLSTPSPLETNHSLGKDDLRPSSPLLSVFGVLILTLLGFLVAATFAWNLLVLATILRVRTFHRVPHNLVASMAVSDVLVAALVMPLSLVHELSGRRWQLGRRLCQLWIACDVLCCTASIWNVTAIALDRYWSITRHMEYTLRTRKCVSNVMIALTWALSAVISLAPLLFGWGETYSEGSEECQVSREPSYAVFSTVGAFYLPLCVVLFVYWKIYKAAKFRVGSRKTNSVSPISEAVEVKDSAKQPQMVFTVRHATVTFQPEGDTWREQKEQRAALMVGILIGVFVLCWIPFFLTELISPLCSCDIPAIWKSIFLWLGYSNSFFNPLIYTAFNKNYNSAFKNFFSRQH

[6] = biological target: 5-hydroxytryptamine receptor 7 (Homo sapiens, UniProt P34969); assay: as §1, with “HTR7” for “CHRM5”
Sequence of 5-hydroxytryptamine receptor 7 (P34969 whole entry): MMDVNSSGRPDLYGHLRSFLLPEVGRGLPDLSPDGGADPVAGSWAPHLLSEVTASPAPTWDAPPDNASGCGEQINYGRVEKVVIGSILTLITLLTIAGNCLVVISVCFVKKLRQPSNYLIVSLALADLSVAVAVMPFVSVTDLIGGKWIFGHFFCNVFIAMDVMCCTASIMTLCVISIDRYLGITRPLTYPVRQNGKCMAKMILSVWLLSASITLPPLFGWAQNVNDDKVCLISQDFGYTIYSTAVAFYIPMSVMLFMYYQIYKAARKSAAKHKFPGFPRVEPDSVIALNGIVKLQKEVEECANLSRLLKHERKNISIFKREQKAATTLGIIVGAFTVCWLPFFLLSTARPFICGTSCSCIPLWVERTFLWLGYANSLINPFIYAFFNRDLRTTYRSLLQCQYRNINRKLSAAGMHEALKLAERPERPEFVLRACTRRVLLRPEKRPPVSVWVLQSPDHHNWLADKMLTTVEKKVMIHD

[7] = biological target: Sigma intracellular receptor 2 (Homo sapiens, UniProt Q5BJF2); assay: as §1, with “TMEM97” for “CHRM5”
Sequence of Sigma intracellular receptor 2 (Q5BJF2 whole entry): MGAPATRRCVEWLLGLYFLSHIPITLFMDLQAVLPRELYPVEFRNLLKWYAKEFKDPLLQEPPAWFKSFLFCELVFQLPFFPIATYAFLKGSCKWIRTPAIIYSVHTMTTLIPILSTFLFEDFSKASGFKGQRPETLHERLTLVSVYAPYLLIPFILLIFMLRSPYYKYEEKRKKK

[8] = biological target: Sigma non-opioid intracellular receptor 1 (Homo sapiens, UniProt Q99720); assay: as §1, with “SIGMAR1” for “CHRM5”
Sequence of Sigma non-opioid intracellular receptor 1 (Q99720 whole entry): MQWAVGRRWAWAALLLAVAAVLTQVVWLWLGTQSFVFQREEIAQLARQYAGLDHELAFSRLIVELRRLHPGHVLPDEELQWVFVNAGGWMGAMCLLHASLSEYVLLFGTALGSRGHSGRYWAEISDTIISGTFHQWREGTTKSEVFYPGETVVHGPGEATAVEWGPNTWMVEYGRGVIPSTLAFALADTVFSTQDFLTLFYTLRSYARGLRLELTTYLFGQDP

[9] = biological target: T3, Alpha-2A adrenergic receptor (Homo sapiens, UniProt P08913); assay: as §1, with “ADRA2A” for “CHRM5”
T3 sequence (P08913 whole entry): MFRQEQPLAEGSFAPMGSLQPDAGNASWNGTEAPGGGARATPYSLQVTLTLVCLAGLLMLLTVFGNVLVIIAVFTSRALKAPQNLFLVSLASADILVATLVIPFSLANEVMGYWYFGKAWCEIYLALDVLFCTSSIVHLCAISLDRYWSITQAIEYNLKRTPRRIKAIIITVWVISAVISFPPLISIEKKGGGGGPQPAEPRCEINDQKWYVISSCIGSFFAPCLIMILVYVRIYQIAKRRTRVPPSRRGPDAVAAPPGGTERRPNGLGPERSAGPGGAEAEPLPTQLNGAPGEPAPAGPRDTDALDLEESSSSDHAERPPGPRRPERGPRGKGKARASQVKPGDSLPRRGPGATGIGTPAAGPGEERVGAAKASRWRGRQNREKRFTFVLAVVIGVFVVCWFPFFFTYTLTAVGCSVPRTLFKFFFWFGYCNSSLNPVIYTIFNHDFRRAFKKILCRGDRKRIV

[10] = biological target: T4, Alpha-2B adrenergic receptor (Homo sapiens, UniProt P18089); assay: as §1, with “ADRA2B” for “CHRM5”
T4 sequence (P18089 whole entry): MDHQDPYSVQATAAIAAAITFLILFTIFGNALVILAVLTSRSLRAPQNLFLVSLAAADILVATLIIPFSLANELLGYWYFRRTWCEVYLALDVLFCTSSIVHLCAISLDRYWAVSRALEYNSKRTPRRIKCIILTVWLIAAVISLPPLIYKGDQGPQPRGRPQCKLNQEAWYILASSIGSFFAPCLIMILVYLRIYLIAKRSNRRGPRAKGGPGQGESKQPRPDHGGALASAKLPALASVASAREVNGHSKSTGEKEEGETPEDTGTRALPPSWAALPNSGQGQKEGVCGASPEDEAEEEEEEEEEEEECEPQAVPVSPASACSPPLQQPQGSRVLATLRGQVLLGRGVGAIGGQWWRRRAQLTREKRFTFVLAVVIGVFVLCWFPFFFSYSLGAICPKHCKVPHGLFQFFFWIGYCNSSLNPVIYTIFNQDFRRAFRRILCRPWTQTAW

[11] = biological target: T5, 5-hydroxytryptamine receptor 3A (Homo sapiens, UniProt P46098); assay: as §1, with “HTR3A” for “CHRM5”
T5 sequence (P46098 whole entry): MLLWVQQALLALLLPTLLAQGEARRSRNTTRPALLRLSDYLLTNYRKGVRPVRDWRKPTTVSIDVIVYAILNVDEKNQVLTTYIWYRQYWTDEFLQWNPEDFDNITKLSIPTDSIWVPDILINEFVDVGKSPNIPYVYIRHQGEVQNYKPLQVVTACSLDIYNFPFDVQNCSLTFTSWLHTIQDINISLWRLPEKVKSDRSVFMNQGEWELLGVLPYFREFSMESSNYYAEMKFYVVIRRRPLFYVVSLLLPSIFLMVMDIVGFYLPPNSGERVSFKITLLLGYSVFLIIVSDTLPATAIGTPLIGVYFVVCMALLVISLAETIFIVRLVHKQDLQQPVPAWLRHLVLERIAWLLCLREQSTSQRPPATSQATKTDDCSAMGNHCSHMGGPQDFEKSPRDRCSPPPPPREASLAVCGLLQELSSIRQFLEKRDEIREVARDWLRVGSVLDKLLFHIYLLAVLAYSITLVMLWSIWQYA

[12] = biological target: 5-hydroxytryptamine receptor 2B (Homo sapiens, UniProt P41595); assay: as §1, with “HTR2B” for “CHRM5”
Sequence of 5-hydroxytryptamine receptor 2B (P41595 whole entry): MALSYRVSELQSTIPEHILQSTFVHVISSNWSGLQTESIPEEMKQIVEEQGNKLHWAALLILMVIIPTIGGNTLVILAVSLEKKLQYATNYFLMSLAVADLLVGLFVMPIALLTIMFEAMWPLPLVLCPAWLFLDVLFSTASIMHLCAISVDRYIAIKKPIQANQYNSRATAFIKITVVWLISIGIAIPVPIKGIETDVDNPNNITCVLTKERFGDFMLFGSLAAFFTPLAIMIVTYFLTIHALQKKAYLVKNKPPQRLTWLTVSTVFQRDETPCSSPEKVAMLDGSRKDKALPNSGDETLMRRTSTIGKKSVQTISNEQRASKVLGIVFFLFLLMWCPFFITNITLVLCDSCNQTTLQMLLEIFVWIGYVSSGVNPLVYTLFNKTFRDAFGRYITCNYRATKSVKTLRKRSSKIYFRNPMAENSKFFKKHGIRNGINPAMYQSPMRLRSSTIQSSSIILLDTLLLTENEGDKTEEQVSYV

[13] = biological target: T6, Alpha-2C adrenergic receptor (Homo sapiens, UniProt P18825); assay: as §1, with “ADRA2C” for “CHRM5”
T6 sequence (P18825 whole entry): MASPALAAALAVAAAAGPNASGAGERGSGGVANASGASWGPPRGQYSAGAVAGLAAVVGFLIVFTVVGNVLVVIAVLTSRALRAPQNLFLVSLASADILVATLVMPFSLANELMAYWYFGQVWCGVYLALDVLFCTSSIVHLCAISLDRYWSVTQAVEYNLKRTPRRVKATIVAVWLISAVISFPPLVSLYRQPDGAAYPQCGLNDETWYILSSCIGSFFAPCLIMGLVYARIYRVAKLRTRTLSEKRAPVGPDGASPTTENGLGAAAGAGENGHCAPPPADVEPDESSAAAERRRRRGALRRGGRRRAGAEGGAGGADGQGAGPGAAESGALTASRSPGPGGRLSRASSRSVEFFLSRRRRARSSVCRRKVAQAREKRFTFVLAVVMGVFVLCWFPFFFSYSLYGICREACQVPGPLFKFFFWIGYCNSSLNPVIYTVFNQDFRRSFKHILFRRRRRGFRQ

D(3) dopamine receptor = D(3) dopamine receptor (Homo sapiens, UniProt P35462); assay: as §1, with “DRD3” for “CHRM5”
Sequence of D(3) dopamine receptor (P35462 whole entry): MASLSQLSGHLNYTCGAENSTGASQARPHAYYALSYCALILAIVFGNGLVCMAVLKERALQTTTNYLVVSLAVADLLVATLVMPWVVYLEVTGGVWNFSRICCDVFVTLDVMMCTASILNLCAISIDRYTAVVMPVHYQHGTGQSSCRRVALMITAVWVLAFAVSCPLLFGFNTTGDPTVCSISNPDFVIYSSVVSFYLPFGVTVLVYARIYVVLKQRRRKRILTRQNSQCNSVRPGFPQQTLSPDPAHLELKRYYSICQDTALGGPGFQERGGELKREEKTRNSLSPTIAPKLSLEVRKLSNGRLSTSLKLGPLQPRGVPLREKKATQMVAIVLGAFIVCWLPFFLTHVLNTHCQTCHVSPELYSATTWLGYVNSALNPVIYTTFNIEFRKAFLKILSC

[14] = biological target: T7, 5-hydroxytryptamine receptor 2C (Homo sapiens, UniProt P28335); assay: as §1, with “HTR2C” for “CHRM5”
T7 sequence (P28335 whole entry): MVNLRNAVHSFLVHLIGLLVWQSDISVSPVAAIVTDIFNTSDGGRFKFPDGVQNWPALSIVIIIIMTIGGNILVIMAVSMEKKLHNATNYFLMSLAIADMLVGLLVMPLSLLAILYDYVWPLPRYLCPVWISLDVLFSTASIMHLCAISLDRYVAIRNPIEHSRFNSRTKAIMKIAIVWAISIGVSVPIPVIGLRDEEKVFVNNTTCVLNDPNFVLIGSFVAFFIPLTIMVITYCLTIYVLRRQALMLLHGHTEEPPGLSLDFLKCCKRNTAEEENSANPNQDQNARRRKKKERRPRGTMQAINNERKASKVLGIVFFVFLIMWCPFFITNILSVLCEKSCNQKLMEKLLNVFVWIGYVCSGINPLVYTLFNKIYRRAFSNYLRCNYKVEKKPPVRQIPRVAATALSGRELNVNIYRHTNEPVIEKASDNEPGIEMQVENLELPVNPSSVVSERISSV

[15] = biological target: T8, Alpha-1A adrenergic receptor (Homo sapiens, UniProt P35348); assay: as §1, with “ADRA1A” for “CHRM5”
T8 sequence (P35348 whole entry): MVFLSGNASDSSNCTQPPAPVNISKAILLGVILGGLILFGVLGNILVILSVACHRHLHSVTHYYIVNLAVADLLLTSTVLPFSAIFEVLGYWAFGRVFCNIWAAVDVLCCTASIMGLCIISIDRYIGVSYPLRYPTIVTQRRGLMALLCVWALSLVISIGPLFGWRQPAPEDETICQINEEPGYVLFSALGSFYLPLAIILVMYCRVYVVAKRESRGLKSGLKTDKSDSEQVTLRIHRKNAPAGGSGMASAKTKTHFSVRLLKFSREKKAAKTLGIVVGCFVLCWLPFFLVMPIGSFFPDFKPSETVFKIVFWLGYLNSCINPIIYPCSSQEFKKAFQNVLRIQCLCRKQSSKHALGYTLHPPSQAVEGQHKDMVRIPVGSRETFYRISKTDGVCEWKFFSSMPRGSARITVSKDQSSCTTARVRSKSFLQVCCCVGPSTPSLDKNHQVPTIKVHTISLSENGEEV

Histamine H1 receptor = Histamine H1 receptor (Homo sapiens, UniProt P35367); assay: as §1, with “HRH1” for “CHRM5”
Sequence of Histamine H1 receptor (P35367 whole entry): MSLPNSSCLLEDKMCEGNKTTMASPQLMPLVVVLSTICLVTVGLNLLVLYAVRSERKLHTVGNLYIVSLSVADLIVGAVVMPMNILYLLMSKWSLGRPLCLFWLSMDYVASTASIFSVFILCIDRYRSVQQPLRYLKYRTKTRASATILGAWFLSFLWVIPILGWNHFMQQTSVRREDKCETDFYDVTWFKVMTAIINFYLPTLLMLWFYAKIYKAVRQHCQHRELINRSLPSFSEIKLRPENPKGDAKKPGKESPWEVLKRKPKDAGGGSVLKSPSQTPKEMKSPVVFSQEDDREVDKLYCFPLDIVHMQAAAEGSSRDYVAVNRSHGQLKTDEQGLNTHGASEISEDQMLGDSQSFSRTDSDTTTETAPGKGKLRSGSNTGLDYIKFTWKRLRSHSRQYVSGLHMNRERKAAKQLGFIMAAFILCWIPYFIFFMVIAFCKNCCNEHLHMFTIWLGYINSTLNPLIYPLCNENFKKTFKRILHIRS

[16] = biological target: 5-hydroxytryptamine receptor 2A (Homo sapiens, UniProt P28223); assay: as §1, with “HTR2A” for “CHRM5”
Sequence of 5-hydroxytryptamine receptor 2A (P28223 whole entry): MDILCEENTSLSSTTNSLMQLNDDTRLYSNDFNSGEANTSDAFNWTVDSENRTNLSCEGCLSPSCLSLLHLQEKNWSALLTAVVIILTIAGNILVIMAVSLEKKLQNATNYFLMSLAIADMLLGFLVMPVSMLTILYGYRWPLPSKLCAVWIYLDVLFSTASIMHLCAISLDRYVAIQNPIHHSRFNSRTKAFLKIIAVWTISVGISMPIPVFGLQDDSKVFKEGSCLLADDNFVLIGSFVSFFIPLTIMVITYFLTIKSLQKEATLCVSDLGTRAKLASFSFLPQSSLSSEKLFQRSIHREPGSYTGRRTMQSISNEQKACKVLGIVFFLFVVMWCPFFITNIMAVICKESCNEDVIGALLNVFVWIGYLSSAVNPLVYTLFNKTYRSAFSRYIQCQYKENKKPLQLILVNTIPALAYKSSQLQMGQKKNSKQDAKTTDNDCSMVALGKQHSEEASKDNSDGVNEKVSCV

Ki [12] | Ki [13] | Ki (D(3) dopamine receptor) | Ki [14] | Ki [15] | Ki (Histamine H1 receptor) | Ki [16] | Compound | Ki [1] | Ki [2] | Ki [3] | Ki [4] | Ki [5] | Ki [6] | Ki [7] | Ki [8] | Ki [9] | Ki [10] | Ki [11]
– | – | – | – | – | – | – | Cc1nn(C)c(C)c1-c1cccc2c1CC[C@H](N(C)C)C2 | 308 nM | 2420 nM | 10.2 nM | 5.5 nM | 75.2 nM | 2.3 nM | 1120 nM | 158 nM | 647 nM | 108 nM | 261 nM
52 nM | 673 nM | 669 nM | 635 nM | 1850 nM | 4660 nM | 964 nM | CCCCN1CCC(COC(=O)c2cc(Cl)c(N)c3c2OCCO3)CC1 | – | – | – | 3780 nM | – | – | 64.8 nM | 31.7 nM | 1530 nM | – | 1310 nM
